Patent US10238713B2, “Cyclic tetrapeptides and therapeutic applications thereof” (LODZ UNIVERSITY OF TECHNOLOGY, priority 2010, dated 2019)
Non-standard residues stand in square brackets, D forms with d. Residues, ends and D or L forms follow the SMILES beside them. Oic = O=C(O)[C@@H]1C[C@@H]2CCCC[C@@H]2N1; Phe(4-Cl) = N[C@@H](Cc1ccc(Cl)cc1)C(=O)O; Phe(4-I) = N[C@@H](Cc1ccc(I)cc1)C(=O)O; Phe(4-Me) = Cc1ccc(C[C@H](N)C(=O)O)cc1; 2Nal = N[C@@H](Cc1ccc2ccccc2c1)C(=O)O; β3hY = N[C@H](CC(=O)O)Cc1ccc(O)cc1; Hyp = O=C(O)[C@@H]1C[C@@H](O)CN1; 3Pal = N[C@@H](Cc1cccnc1)C(=O)O; Tic = O=C(O)[C@@H]1Cc2ccccc2CN1; β3hF = N[C@H](CC(=O)O)Cc1ccccc1; ΔPro = O=C(O)[C@@H]1C=CCN1

Experiments:
human PBMC = assay: Toxicity test: PBMC survival in 24 h culture (MTT); settings: ANOVA, FIGS. 8A-8F (4B8M repeated per figure)
Method: (§2) PBMC were isolated by centrifugation on Ficoll-uropoline gradient (density 1.077 g/ml) (Lymphoprep; PAA Laboratories), at 800×g for 20 min at 4° C. The interphase cells, consisting of lymphocytes (20%) and monocytes (80%) were then washed three times with Hanks' medium and re-suspended in the culture medium at density of 2×10^6 cells/ml.
Appropriate dilutions of DMSO in RPMI 1640 medium were used as controls. Cell survival was determined by the MTT colorimetric method (Hansen et al., J. Immunol. Methods, 1989, pp. 203-210). The data are presented as a mean OD value from quadriplicate wells ±standard error (SE). The cultures “Control (−)” contained only cells in the culture medium.
The assay was performed per Hansen et al., J. Immunol. […] Briefly, 25 μl of MTT (5 mg/ml) stock solution was added per well at the end of cell incubation and the plates were incubated for 3 h in a cell culture incubator. Then, 100 μl of the extraction buffer (20% SDS with 50% DMF, pH 4.7) was added. After additional overnight incubation, the optical density was measured at 550 nm (Dynatech 5000).

[1] = tested on: mice, carrageenan-induced foot pad edema; assay: Carrageenan-induced foot-pad edema test; format: in vivo, mouse; settings: 4 h after carrageenan; peptides 250 μg i.p., DEX 25 μg i.p., 30 min before; FIGS. 17A-17C
Method: (§1) In this and the air-pouch test, 1.5 mg peptide was dissolved in 300 μl of DMSO, then in 0.9% NaCl to achieve the desired dose (250 μg/0.2 ml or 100 μg/0.2 ml). Carrageenan (Sigma) was dissolved in 0.9% aqueous NaCl (overnight). 50 μl of 2% carrageenan solution was injected intradermally into hind foot pads. The peptides were given in a single 250 μg dose (0.2 ml) per mouse intraperitoneally (i.p.), 30 min before carrageenan administration. Dexamethasone (DEX) (Dexaven, Polfa, Poland), a reference drug, was given i.p. in dose 25 μg per mouse. Control mice were administered i.p. appropriately diluted solvent (DMSO in aqueous NaCl) instead of peptides. The foot pads of “background” (BG) mice were injected with 50 μl of 0.9% aqueous NaCl. Foot pad edema was measured with a spring caliper, 2 h, 3 h and 4 h after administration of carrageenan. The results are presented in FIGS. 17A, 17B and 17C as mean values of the antigen-specific increase of the foot pad thickness measured in 5 mice in each experimental group and expressed in mm ±SE (only results from measurements 4 h following administration of carrageenan are presented in figures). Statistics: FIG. 17A: Control vs: DEX P=0.0001; 4B8M P=0.0001; P25 NS (P=1.0000); P28 NS (P=1.0000); P31 NS (P=0.0528); P35 P=0.0008 (ANOVA of Kruskal-Wallis); FIG. 17B: Statistics: Control vs: P22 NS (P=1.0000); P26 NS (P=1.0000); P27 P=0.0050; P30 P=0.0004; P33-b NS (P=1.0000); SP00-b P=0.0001; P00S-b NS (P=1.0000) (ANOVA of Kruskal-Wallis); FIG. 17C: Statistics: Control vs: P21 P=0.0147; P23-2 P=0.0083; P24 P=0.0001; P29 NS (P=0.9999); P32 P=0.0001; P33 NS (P=0.6806); P34 NS (P=0.1920) (ANOVA).

[2] = tested on: mice, carrageenan air pouch; assay: Carrageenan air-pouch test (exudate cell number); format: in vivo, mouse; settings: peptides 100 μg i.p. one hour before carrageenan, 24 h; FIGS. 18A-18B
Method: as §1
Air pouches were formed by subdermal injection into the dorsal region (in a halothane anesthesia) of 5 cm^3 of air (needle 23G x 11/4, 5 ml syringe). On day 3 the air pouches were given an additional 2 ml of air and an inflammatory process was elicited by an intra-pouch injection of 1% of carrageenan in 0.5 ml of 0.9% aqueous NaCl. The peptides were given i.p. at a dose of 100 μg one hour before carrageenan injection into the air pouch. The mice from the “background” (BG) group were given 0.9% aqueous NaCl i.p. and 0.9% aqueous NaCl into the air pouches. Control mice were given appropriately diluted DMSO i.p. and carrageenan into the air pouches. 24 h after carrageenan injection, the mice were sacrificed by cervical dislocation, the air pouches were supplemented with 1 ml of 0.9% aqueous NaCl and the exudates from the air pouches were aspirated using a syringe. The exudates were diluted with 0.9% aqueous NaCl and the cells were counted in a Bürker hemocytometer. Data are presented in FIGS. 18A and 18B as the mean values from 10 mice/group (cell number×10^6 per mouse) ±SE. Then the cells were centrifuged and 0.1 ml of the supernatant was saved for TNF-α determination (see Determination of TNF-α activity, above). The cell pellets were used to perform smears on microscopic glasses, which were stained with Giemsa and May-Grünwald reagents for evaluation of mast cell degranulation. Cell analysis was performed by a histologist using a light microscope and 1000× magnification. The content of intact and degranulated mast cells is given in percentage (mean values from 10 mice/group) ±SE. Statistics: FIG. 18A: BG vs Control P=0.0000; Control vs: DEX P=0.0034; 4B8M P=0.0005; P22 NS (P=0.7275); P26 P=0.0032; P27 NS (P=0.0659); P35 NS (P=1.0000) (ANOVA of Kruskal-Wallis); FIG. 18B: Control vs: P21 NS (P=0.322); P23-2 P=0.0020; P24 P=0.0001; P25 P=0.0418; P28 NS (P=0.3502); P29 NS (P=0.0582); P30 P=0.0006; P31 P=0.0078; P32 P=0.0340; P33 NS (P=0.9993); P34 NS (p=0.0566) (ANOVA).

[3] = tested on: PHA-induced proliferation of human peripheral blood mononuclear cells (PBMC); assay: Proliferative response of PBMC to PHA (MTT); format: cell-based; settings: four-day incubation, FIGS. 9A-9F
Method: as §2
The isolated PBMC were distributed into 96-well flat-bottom plates in 100 μl aliquots (2×10^5 cells/well). PHA was used at concentration of 5 μg/ml. The compounds were tested at concentrations of 1, 10 and 100 μg/ml. DMSO at appropriate dilutions served as control. After a four-day incubation in a cell culture incubator, the proliferative response of cells was determined by the colorimetric MTT method (Hansen et al., J. Immunol. Methods, 1989, pp. 203-210). The data are presented as a mean OD value from quadriplicate wells ±standard error (SE). The cultures “Control (−)” contained no mitogen (PHA). The cultures “Control (PHA)” contained PHA but not cyclic tetrapeptides.
Briefly, 25 μl of MTT (5 mg/ml) stock solution was added per well at the end of cell incubation and the plates were incubated for 3 h in a cell culture incubator. Then, 100 μl of the extraction buffer (20% SDS with 50% DMF, pH 4.7) was added. After additional overnight incubation, the optical density was measured at 550 nm (Dynatech 5000).

[4] = Solubility in the aqueous culture medium; format: physicochemical
Method: RPMI-1640 medium (Cibi/Life Technologies, UK), fetal calf serum (FCS, Gibco), DMSO, phytohemagglutinin A (PHA), lipopolysaccharide (LPS) from E. coli strain O111:B4 (Sigma), […]-2,5-diphenyltetrazolium bromide (MTT), SDS and DMF (Sigma). The culture medium consisted of RPMI-1640, 10% addition of FCS, L-glutamine, sodium pyruvate, 2-mercaptoetanol and antibiotics (streptomycin and penicillin). Cyclic tetrapeptides were initially dissolved in DMSO (5 mg/ml), the dissolved in the culture medium to the desired concentration.
The effects of the peptides on PMBC survival in 24h culture are presented in FIGS. 8A, 8B, 8C, 8D, 8E and 8F. Peptide 4B8M (compound I-A) was included as a reference compound. Appropriate dilutions of DMSO were added to control cultures. […] In the figures, P01=compound I-D, P02=compound I-E, P03=compound I-F, P04=compound I-G, P05=compound I-H, P06=compound I-J, P07=compound I-K, P08=compound I-L, P10a=compound I-M, P10b=compound I-N, P11=compound I-O, P21=compound I-R, P-21b=compound I-Q, P22=compound I-S, P23-2=compound I-U, P24=compound I-V, P25=compound I-X, P25-i=compound I-W, P26=compound I-Y, P27=compound I-Z, P28=compound I-AA, P29=compound I-AB, P30=compound I-AC, P31=compound I-AD, P32=compound I-AE, P33=compound I-AG, P33-b=compound I-AF, P34=compound I-AH, P35=compound I-AI, P00S-b=compound I-AJ, SP00-b=compound I-AL.

SMILES | PBMC survival, P vs DMSO at appropriate dilution (human PBMC; 10 μg/ml) | PBMC survival, P vs DMSO at appropriate dilution (human PBMC; 100 μg/ml) | foot pad edema (increase of foot pad thickness), P vs Control [1] | air pouch exudate cell number, P vs Control [2] | PHA-induced PBMC proliferation, P vs DMSO at appropriate dilution ([3]; 10 μg/ml) | PHA-induced PBMC proliferation, P vs DMSO at appropriate dilution ([3]; 100 μg/ml) | solubility in the aqueous culture medium [4]
O=C1C[C@H](Cc2ccccc2)NC(=O)[C@@H]2Cc3ccccc3CN2C(=O)[C@@H]2CCCN2C(=O)[C@H](Cc2ccccc2)N1 [I-AB] (cyclo(FP[Tic][β3hF])) | 0.8876 | 0.0001 | 0.9999 | 0.0582 | 1.0000 | 0.0001 | –
O=C1C[C@H](Cc2ccccc2)NC(=O)[C@@H]2CCCN2C(=O)[C@@H]2CCCN2C(=O)[C@H](Cc2cccnc2)N1 [I-AC] (cyclo([3Pal]PP[β3hF])) | 0.8178 | 0.9882 | 0.0004 | 0.0006 | 0.9850 | 0.9871 | –
O=C1C[C@H](Cc2ccccc2)NC(=O)[C@@H]2CCCN2C(=O)[C@@H]2C[C@@H]3CCCC[C@@H]3N2C(=O)[C@H](Cc2ccccc2)N1 [I-AD] (cyclo(F[Oic]P[β3hF])) | 1.0000 | 0.9531 | 0.0528 | 0.0078 | – | 1.0000 | –
O=C1C[C@H](Cc2ccc(O)cc2)NC(=O)[C@@H]2CCCN2C(=O)[C@@H]2CCCN2C(=O)[C@H](Cc2ccccc2)N1 [I-AG] (cyclo(FPP[β3hY])) | 0.0001 | 0.0001 | 0.6806 | 0.9993 | 1.0000 | 1.0000 | –
O=C1C[C@H](Cc2ccccc2)NC(=O)[C@@H]2CCCN2C(=O)[C@@H]2C[C@@H](O)CN2C(=O)[C@H](Cc2ccccc2)N1 [I-R] (cyclo(F[Hyp]P[β3hF])) | 0.6250 | 0.0019 | 0.0147 | 0.322 | 0.7122 | 0.0436 | –
O=C1C[C@H](Cc2ccccc2)NC(=O)[C@@H]2CCCN2C(=O)[C@@H]2C=CCN2C(=O)[C@H](Cc2ccccc2)N1 [I-S] (cyclo(F[ΔPro]P[β3hF])) | 0.9753 | 1.0000 | 1.0000 | 0.7275 | 0.0275 | 0.0001 | –
O=C1C[C@H](Cc2ccccc2)NC(=O)[C@@H]2CCCN2C(=O)[C@@H]2CCCN2C(=O)[C@H](Cc2ccc3ccccc3c2)N1 [I-U] (cyclo([2Nal]PP[β3hF])) | 0.9972 | 0.4949 | 0.0083 | 0.0020 | 1.0000 | 0.0002 | –
O=C1C[C@H](Cc2ccccc2)NC(=O)[C@@H]2CCCN2C(=O)[C@@H]2CCCN2C(=O)[C@H](Cc2ccc(Cl)cc2)N1 [I-V] (cyclo(PP[β3hF][Phe(4-Cl)])) | 0.9999 | 0.1122 | 0.0001 | 0.0001 | 1.0000 | 0.4681 | –
O=C1C[C@H](Cc2ccccc2)NC(=O)[C@@H]2CCCN2C(=O)[C@@H]2CCCN2C(=O)[C@H](Cc2ccc(I)cc2)N1 [I-W] (cyclo(PP[β3hF][Phe(4-I)])) | 0.9992 | 0.9602 | – | – | 0.0001 | 0.0001 | incomplete solubility
O=C1C[C@H](Cc2ccccc2)NC(=O)[C@@H]2C[C@@H]3CCCC[C@@H]3N2C(=O)[C@@H]2CCCN2C(=O)[C@H](Cc2ccccc2)N1 [I-Y] (cyclo(FP[Oic][β3hF])) | 0.9992 | 0.0001 | 1.0000 | 0.0032 | 0.0001 | 0.0001 | –
Cc1ccc(C[C@@H]2NC(=O)C[C@H](Cc3ccccc3)NC(=O)[C@@H]3CCCN3C(=O)[C@@H]3CCCN3C2=O)cc1 [I-Z] (cyclo(PP[β3hF][Phe(4-Me)])) | 0.9997 | 0.0236 | 0.0050 | 0.0659 | 0.9121 | 0.8195 | –
